Assay results reported in article PMC9823097, “Dysregulation of PRMT5 in chronic lymphocytic leukemia promotes progression with high risk of Richter’s transformation” (Nature Communications, 2023).
Like-named read-outs stand apart in the source and are kept apart here.

Key:
CCMCL-1 = test: Anti-proliferative activity, MTS assay, CCMCL-1; format: cell-based; conditions: MCL, read-out: PRT382 IC50 (anti-proliferative)
Method: (§1) Cell proliferation was assessed via MTS (3-[4,5-dimethylthiazol-2-yl]-5-[3-carboxymethoxyphenyl]-2-[4-sulfophenyl]-2H-tetrazolium) assay (Sigma), using the tetrazolium dye […]. Cell apoptosis was evaluated by Annexin V-FITC or PE and propidium iodide (PI) staining using FC500 cytometer (Beckman-Coulter, Indianapolis, IN) following the manufacturer’s procedure (BD Pharmingen, Billerica, MA)[55]. For cell cycle analysis, cells were fixed with cold ethanol overnight and then stained before analysis with 30 μg/mL propidium iodide (Invitrogen) and 200 μg/mL RNase (Sigma-Aldrich) in 0.1 % v/v Triton X-100 (Sigma-Aldrich). Cell cycle data analysis was performed using ModFit LT software (Verity Software House, Topsham, ME).

KARPAS-422 = test: Anti-proliferative activity, MTS assay, KARPAS-422; format: cell-based; conditions: Homo sapiens, DLBCL, read-out: PRT382 IC50 (anti-proliferative)
Method: as §1

RL = test: Anti-proliferative activity, MTS assay, RL; format: cell-based; conditions: Homo sapiens, DLBCL, read-out: PRT382 IC50 (anti-proliferative)
Method: as §1

Jurkat = test: Anti-proliferative activity, MTS assay, Jurkat; format: cell-based; conditions: Homo sapiens, T-cell line, read-out: PRT382 IC50 (anti-proliferative)
Method: as §1

[1] = tested on: leukemia and lymphoma cell lines; test: Proliferation of a panel of leukemia and B-lymphoma cell lines, 72 h, MTS assay; format: cell-based; conditions: for IC50: CCMCL-1, JVM-2, U-2932, RL, and KARPAS-422, read-out: Anti-proliferative IC50 values, range over cell lines
Method: as §1

Mec-1 cells = test: Cell growth curves over 12 days, Mec-1; format: cell-based
Method: Live cells/mL were counted on days 3, 6, 10, and 12. […] The split factor was calculated at indicated time points by dividing the counted cells/mL by 3E5. Cell growth was extrapolated over time by multiplying the subsequent cell count by the previous split factor. Cell growth is plotted as fold change relative to DMSO-treated cells.

[2] = molecular target: recombinant human PRMT5/MEP50 (Homo sapiens, UniProt O14744); test: Filtration binding assay with recombinant human PRMT5/MEP50 (biochemical potency); conditions: histone H2A as the protein substrate
Sequence of recombinant human PRMT5/MEP50 (O14744 whole entry): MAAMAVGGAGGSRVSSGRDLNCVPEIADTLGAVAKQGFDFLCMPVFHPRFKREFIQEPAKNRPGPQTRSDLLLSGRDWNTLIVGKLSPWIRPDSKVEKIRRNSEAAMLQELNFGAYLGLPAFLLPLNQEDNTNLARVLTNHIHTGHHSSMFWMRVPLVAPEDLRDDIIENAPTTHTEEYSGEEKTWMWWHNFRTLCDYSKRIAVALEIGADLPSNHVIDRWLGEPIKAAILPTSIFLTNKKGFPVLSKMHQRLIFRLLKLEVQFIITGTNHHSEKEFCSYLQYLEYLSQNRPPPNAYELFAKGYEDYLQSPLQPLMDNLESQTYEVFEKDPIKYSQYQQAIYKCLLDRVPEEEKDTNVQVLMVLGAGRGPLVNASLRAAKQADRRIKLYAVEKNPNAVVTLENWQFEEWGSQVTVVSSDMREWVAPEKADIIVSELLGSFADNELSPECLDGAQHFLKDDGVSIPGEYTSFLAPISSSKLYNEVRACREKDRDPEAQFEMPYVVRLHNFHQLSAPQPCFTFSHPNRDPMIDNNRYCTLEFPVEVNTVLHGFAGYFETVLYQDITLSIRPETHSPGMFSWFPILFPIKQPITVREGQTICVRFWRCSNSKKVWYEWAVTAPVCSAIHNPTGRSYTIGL
Sequence of recombinant human PRMT5/MEP50 (Q9BQA1 whole entry partner): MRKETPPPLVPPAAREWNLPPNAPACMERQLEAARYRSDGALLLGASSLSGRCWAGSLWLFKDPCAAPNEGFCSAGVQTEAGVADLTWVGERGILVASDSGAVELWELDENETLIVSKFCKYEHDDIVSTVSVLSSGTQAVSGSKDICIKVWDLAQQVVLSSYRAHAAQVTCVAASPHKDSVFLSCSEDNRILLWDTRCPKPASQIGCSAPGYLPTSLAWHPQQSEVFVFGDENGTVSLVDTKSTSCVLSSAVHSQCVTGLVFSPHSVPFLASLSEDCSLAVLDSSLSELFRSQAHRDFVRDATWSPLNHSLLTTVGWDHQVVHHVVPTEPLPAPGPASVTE

JVM-2 = test: Anti-proliferative activity, MTS assay, JVM-2; format: cell-based; conditions: Homo sapiens, DLBCL, read-out: PRT382 IC50 (anti-proliferative)
Method: as §1

[3] = Pharmacokinetics in mice (clearance, oral bioavailability, AUC); format: in vivo
U-2932 = test: Anti-proliferative activity, MTS assay, U-2932; format: cell-based; conditions: Homo sapiens, U2932, DLBCL, read-out: PRT382 IC50 (anti-proliferative)
Method: as §1

[4] = Mec-1, continuous exposure over 12 days

## CON=c1nc[nH]c2c1ccn2[C@@H]1O[C@H]([C@H](O)c2ccc(Cl)c(Cl)c2)[C@@H](O)[C@H]1O.Cl [PRT382, (2 R,3 S,4 R,5 R)-2-[(R)-(3,4-dichlorophenyl)-hydroxy-methyl]-5-[(4Z)-4-methoxyimino-1H-pyrrolo[2,3-d]pyrimidin-7-yl]tetrahydrofuran-3,4-diol hydrochloride]
CCMCL-1
  IC50: 14 nM
KARPAS-422
  IC50: 23 nM
RL
  IC50: 16 nM
Jurkat
  IC50: > 1000 nM
[1]; CCMCL, 1e-9 M
  proliferation relative to DMSO (=1), Figure 6F: 0.94
[1]; CCMCL, 1e-8 M
  proliferation relative to DMSO (=1), Figure 6F: 0.93
[1]; CCMCL, 1e-7 M
  proliferation relative to DMSO (=1), Figure 6F: 0.55
[1]; CCMCL, 1e-6 M
  proliferation relative to DMSO (=1), Figure 6F: 0.13
[1]; CCMCL, 1e-5 M
  proliferation relative to DMSO (=1), Figure 6F: 0.12
[1]; earlier manuscript text quoted in the peer review file
  IC50: 10 to 100 nM
[1]
  IC50: 10 to 500 nM
[1]; Jeko, 1e-9 M
  proliferation relative to DMSO (=1), Figure 6F: 1
[1]; Jeko, 1e-8 M
  proliferation relative to DMSO (=1), Figure 6F: 0.98
[1]; Jeko, 1e-7 M
  proliferation relative to DMSO (=1), Figure 6F: 0.96
[1]; Jeko, 1e-6 M
  proliferation relative to DMSO (=1), Figure 6F: 0.13
[1]; Jeko, 1e-5 M
  proliferation relative to DMSO (=1), Figure 6F: 0.14
[1]; Pfeiffer, 1e-9 M
  proliferation relative to DMSO (=1), Figure 6F: 0.99
[1]; Pfeiffer, 1e-8 M
  proliferation relative to DMSO (=1), Figure 6F: 1
[1]; Pfeiffer, 1e-7 M
  proliferation relative to DMSO (=1), Figure 6F: 0.76
[1]; Pfeiffer, 1e-6 M
  proliferation relative to DMSO (=1), Figure 6F: 0.18
[1]; Pfeiffer, 1e-5 M
  proliferation relative to DMSO (=1), Figure 6F: 0.22
[1]; SU-DHL-4, 1e-9 M
  proliferation relative to DMSO (=1), Figure 6F: 1
[1]; SU-DHL-4, 1e-8 M
  proliferation relative to DMSO (=1), Figure 6F: 1
[1]; SU-DHL-4, 1e-7 M
  proliferation relative to DMSO (=1), Figure 6F: 0.79
[1]; SU-DHL-4, 1e-6 M
  proliferation relative to DMSO (=1), Figure 6F: 0.13
[1]; SU-DHL-4, 1e-5 M
  proliferation relative to DMSO (=1), Figure 6F: 0.15
Mec-1 cells; Mec-1
  anti-proliferative potency compared to JNJ-64619178, LLY-283, and PF-06855800: similar-to-reduced
Mec-1 cells; Mec-1, 1 nM, day 0
  Rep 1 Live Cells [Fold Change]: 1 Fold Change
  Rep 2 Live Cells [Fold Change]: 1 Fold Change
  Rep 3 Live Cells [Fold Change]: 1 Fold Change
Mec-1 cells; Mec-1, 1 nM, day 3
  Rep 1 Live Cells [Fold Change]: 5.48 Fold Change
  Rep 2 Live Cells [Fold Change]: 7.38 Fold Change
  Rep 3 Live Cells [Fold Change]: 6.82 Fold Change
Mec-1 cells; Mec-1, 1 nM, day 6
  Rep 1 Live Cells [Fold Change]: 47.7 Fold Change
  Rep 2 Live Cells [Fold Change]: 61 Fold Change
  Rep 3 Live Cells [Fold Change]: 62.4 Fold Change
Mec-1 cells; Mec-1, 1 nM, day 10
  Rep 1 Live Cells [Fold Change]: 655 Fold Change
  Rep 2 Live Cells [Fold Change]: 809 Fold Change
  Rep 3 Live Cells [Fold Change]: 898 Fold Change
Mec-1 cells; Mec-1, 1 nM, day 12
  Rep 1 Live Cells [Fold Change]: 2650 Fold Change
  Rep 2 Live Cells [Fold Change]: 2940 Fold Change
  Rep 3 Live Cells [Fold Change]: 4480 Fold Change
Mec-1 cells; Mec-1, 10 nM, day 0
  Rep 1 Live Cells [Fold Change]: 1 Fold Change
  Rep 2 Live Cells [Fold Change]: 1 Fold Change
  Rep 3 Live Cells [Fold Change]: 1 Fold Change
Mec-1 cells; Mec-1, 10 nM, day 3
  Rep 1 Live Cells [Fold Change]: 8.13 Fold Change
  Rep 2 Live Cells [Fold Change]: 8.43 Fold Change
  Rep 3 Live Cells [Fold Change]: 7.78 Fold Change
Mec-1 cells; Mec-1, 10 nM, day 6
  Rep 1 Live Cells [Fold Change]: 70.5 Fold Change
  Rep 2 Live Cells [Fold Change]: 65.2 Fold Change
  Rep 3 Live Cells [Fold Change]: 77.4 Fold Change
Mec-1 cells; Mec-1, 10 nM, day 10
  Rep 1 Live Cells [Fold Change]: 909 Fold Change
  Rep 2 Live Cells [Fold Change]: 1080 Fold Change
  Rep 3 Live Cells [Fold Change]: 887 Fold Change
Mec-1 cells; Mec-1, 10 nM, day 12
  Rep 1 Live Cells [Fold Change]: 3770 Fold Change
  Rep 2 Live Cells [Fold Change]: 3720 Fold Change
  Rep 3 Live Cells [Fold Change]: 6410 Fold Change
Mec-1 cells; Mec-1, 100 nM, day 0
  Rep 1 Live Cells [Fold Change]: 1 Fold Change
  Rep 2 Live Cells [Fold Change]: 1 Fold Change
  Rep 3 Live Cells [Fold Change]: 1 Fold Change
Mec-1 cells; Mec-1, 100 nM, day 3
  Rep 1 Live Cells [Fold Change]: 6.3 Fold Change
  Rep 2 Live Cells [Fold Change]: 5.17 Fold Change
  Rep 3 Live Cells [Fold Change]: 4.6 Fold Change
Mec-1 cells; Mec-1, 100 nM, day 6
  Rep 1 Live Cells [Fold Change]: 14 Fold Change
  Rep 2 Live Cells [Fold Change]: 17.1 Fold Change
  Rep 3 Live Cells [Fold Change]: 13.3 Fold Change
Mec-1 cells; Mec-1, 100 nM, day 10
  Rep 1 Live Cells [Fold Change]: 63 Fold Change
  Rep 2 Live Cells [Fold Change]: 155 Fold Change
  Rep 3 Live Cells [Fold Change]: 73.7 Fold Change
Mec-1 cells; Mec-1, 100 nM, day 12
  Rep 1 Live Cells [Fold Change]: 100 Fold Change
  Rep 2 Live Cells [Fold Change]: 297 Fold Change
  Rep 3 Live Cells [Fold Change]: 92.2 Fold Change
Mec-1 cells; Mec-1, 1 µM, day 0
  Rep 1 Live Cells [Fold Change]: 1 Fold Change
  Rep 2 Live Cells [Fold Change]: 1 Fold Change
  Rep 3 Live Cells [Fold Change]: 1 Fold Change
Mec-1 cells; Mec-1, 1 µM, day 3
  Rep 1 Live Cells [Fold Change]: 3.87 Fold Change
  Rep 2 Live Cells [Fold Change]: 4.23 Fold Change
  Rep 3 Live Cells [Fold Change]: 5.4 Fold Change
Mec-1 cells; Mec-1, 1 µM, day 6
  Rep 1 Live Cells [Fold Change]: 7.67 Fold Change
  Rep 2 Live Cells [Fold Change]: 5.09 Fold Change
  Rep 3 Live Cells [Fold Change]: 4.33 Fold Change
Mec-1 cells; Mec-1, 1 µM, day 10
  Rep 1 Live Cells [Fold Change]: 8.99 Fold Change
  Rep 2 Live Cells [Fold Change]: 4.86 Fold Change
  Rep 3 Live Cells [Fold Change]: 2.73 Fold Change
Mec-1 cells; Mec-1, 1 µM, day 12
  Rep 1 Live Cells [Fold Change]: 3.31 Fold Change
  Rep 2 Live Cells [Fold Change]: 4.55 Fold Change
  Rep 3 Live Cells [Fold Change]: 1.12 Fold Change
Mec-1 cells; [4]
  dose at which growth inhibition begins: 100 nM
  effect on growth potential (cell growth): time and dose-dependent growth inhibition
[2]
  IC50: 2.8 nM
JVM-2
  IC50: 10 nM
[3]
  clearance: low
[3]; mouse, in vivo, po, read-out: oral bioavailability (F%)
  bioavailability: 70 to 80%
U-2932
  IC50: 12 nM
